Laboratory results from patent US20100061945A1, “Use Of Quinoa Extract As Cosmetic And Pharmaceutic Slimming Agent And/Or As An Agent Preventing The Formation Of New Fats In The Human Body” (Societe D'Exploitation Des Produits Pour Les Indus tries …, priority 2006, published 2010).

Tests used:
[1] = test system: normal human adipocytes; assay: Lipolytic activity in isolated normal human adipocytes by assaying the free fatty acids; assay type: cell-based; conditions: incubation concentration 0.0001 weight % DE, two hours at 37° C.
[2] = test system: murine preadipocytes (3T3-L1 line); assay: Differentiation of preadipocytes to adipocytes, G6PDH activity assay; assay type: cell-based; conditions: incubation concentration 0.0000001 weight % DE (1 ng/ml)
Description: 1—Principle of the Method • The method described consists in incubating the product in the presence of murine preadipocytes (3T3-L1 line) which, under the influence of an appropriate culture medium, differentiate into mature adipocytes capable of storing triglycerides. The differentiation is evaluated by an enzymatic assay of Glucose-6-phosphate dehydrogenase (G6PDH). This enzyme, which is located within the adipocytes, allows the conversion of Glucose-6-phosphate to Gluconate-6-phosphate in the presence of Nicotinamide Adenine Dinucleotide Phosphate (NAPD) and leads to the formation of Hydrogenated Nicotinamide Adenine Dinucleotide Phosphate (NAPDH) used for the neosynthesis of fatty acids. It is present in the mature adipocytes. The formation of NAPDH is monitored by absorption spectrophotometry at 340 nanometers.
2—Experimental Protocol • (i)—Cellular model: The test is carried out using murine preadipocytes (3T3-L1 cell line) cultured in a monolayer until confluence is obtained. […] The G6PDH activity of the cellular lyzates is measured by adding its substrate, D-glucose 6P (1 mmol) and its cofactor NADP (8 mmol). The kinetics of appearance of NAPDH is measured by spectrophotometry at 340 nm for 2 minutes. […]

| Compound | Lipolytic activity (compared with the control = 100) [1] | Free fatty acid concentration ([1]; mean of five assays, control 16 ± 3) | % inhibition (differentiation of the preadipocytes) [2] | G6PDH ([2]; differentiated control 0.46 ± 0.03, undifferentiated control 0.03 ± 0.002) |
| --- | --- | --- | --- | --- |
| Cn1c(=O)c2c(ncn2C)n(C)c1=O [Caffeine, 1,3,7-trimethyl-xanthine] | 154 | 25 ± 4 µmol | – | – |
| TNFα | – | – | 43% | 0.005 ± 0.01 U/ml |
